From the NIST ThermoML archive (doi:10.1016/j.jct.2013.04.017)
± gives the expanded uncertainty stated by the source.

Columns and labels:
[1] = mn = molality of the nth substance listed, in mol/kg; conditions: 313.15 K; 101 kPa; Liquid; fixed-path interferometer; m2 = 0
[2] = 313.15 K; 101 kPa; Liquid; Sing-around technique in a fixed-path interferometer

Compound	speed of sound [1]	speed of sound [2]
O [water] + O=C(O)CC(O)(CC(=O)O)C(=O)O	1528.9 ± 1.1 m/s	–
O [water]	–	1528.9 ± 1.1 m/s
